Target: T1, cAMP and cAMP-inhibited cGMP 3',5'-cyclic phosphodiesterase 10A (Rattus norvegicus, UniProt Q9QYJ6)
T1 sequence (Q9QYJ6 whole entry): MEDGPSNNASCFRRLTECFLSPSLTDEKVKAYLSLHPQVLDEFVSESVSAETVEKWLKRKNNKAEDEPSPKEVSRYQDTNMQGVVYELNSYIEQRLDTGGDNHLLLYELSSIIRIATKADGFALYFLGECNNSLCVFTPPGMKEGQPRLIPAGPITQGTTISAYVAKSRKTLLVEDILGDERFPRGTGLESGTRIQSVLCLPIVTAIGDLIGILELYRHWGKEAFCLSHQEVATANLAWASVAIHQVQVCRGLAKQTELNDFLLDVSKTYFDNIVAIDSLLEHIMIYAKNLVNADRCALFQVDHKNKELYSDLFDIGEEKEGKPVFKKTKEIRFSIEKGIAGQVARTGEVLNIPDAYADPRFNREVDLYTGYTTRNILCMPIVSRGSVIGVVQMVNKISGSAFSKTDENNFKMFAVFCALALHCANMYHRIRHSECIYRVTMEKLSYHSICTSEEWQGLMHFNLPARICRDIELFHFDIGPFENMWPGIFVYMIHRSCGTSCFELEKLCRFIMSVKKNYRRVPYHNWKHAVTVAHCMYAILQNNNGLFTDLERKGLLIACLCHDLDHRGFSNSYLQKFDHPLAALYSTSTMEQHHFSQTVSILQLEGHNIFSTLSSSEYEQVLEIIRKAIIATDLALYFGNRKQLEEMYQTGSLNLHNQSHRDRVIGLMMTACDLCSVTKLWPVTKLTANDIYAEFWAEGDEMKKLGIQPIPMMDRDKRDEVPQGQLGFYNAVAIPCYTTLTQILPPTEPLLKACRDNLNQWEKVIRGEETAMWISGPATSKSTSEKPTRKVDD
Test: Enzyme Inhibition Assay: Enzyme activity: An IMAP TR-FRET assay was used to analyze the enzyme activity (Molecular Devices Corp., Sunnyvale, Calif).

Compound | IC50 [nM]
O=[N+]([O-])c1ccc(N2CCC(Oc3ncccc3C3CCOCC3)CC2)nc1 | 1400
CC(=O)N1CCC(c2nccnc2OC2CCN(c3ccc(C)cn3)CC2)CC1 | 1620
c1ccc2nc(N3CC(Oc4nccnc4N4CCCCCC4)C3)ccc2c1 | 334
CC(=O)N1CC=C(c2nccnc2OC2CN(C(=O)c3ccc(C)cn3)C2)CC1 | 1030
c1ccc(N2CCC(Oc3nccnc3C3CCOCC3)CC2)nc1 | 2390
Clc1cnccc1-c1nccnc1OC1CN(c2ccc3ccccc3n2)C1 | 155
c1ccc2nc(N3CC(Oc4nccnc4C4CCOCC4)C3)ccc2c1 | 331
OCC1CCN(c2nccc(OC3CN(c4ccc5ccccc5n4)C3)n2)CC1 | 14.2
O=C(c1ccc2ccccc2n1)N1CCC(Oc2nccnc2C2CCOCC2)CC1 | 994
Cc1ccc(C(=O)N2CCC(Oc3ncccc3C3CCOCC3)CC2)nc1 | 1650
Nc1ccc(-c2nccc(OC3CN(c4ccc5ccccc5n4)C3)n2)cc1 | 110
O=C(c1ccccn1)N1CCC(Oc2ncccc2C2CCOCC2)CC1 | 1260
O=C(c1nccc2ccccc12)N1CCC(Oc2nccnc2N2CCOCC2)CC1 | 5400
COCC1CCN(c2nccnc2OC2CCN(c3ccc4ccccc4n3)CC2)CC1 | 1120
O=C(c1nccc2ccccc12)N1CCC(Oc2ncccc2N2CCOCC2)CC1 | 11100
c1cnc(O[C@H]2CCN(c3nccc4ccccc34)C2)c(C2CCOCC2)c1 | 730
CC(=O)N1CC2(C1)CN(c1nccnc1OC1CCN(c3ccc4ccccc4n3)CC1)C2 | 1270
C1=CCN(c2nccnc2OC2CN(c3ccc4ccccc4n3)C2)CC1 | 314
O=C(c1ccc[nH]1)N1CCC(Oc2ncccc2C2CCOCC2)CC1 | 4260
c1ccc2cc(N3CC(Oc4nccnc4C4CCOCC4)C3)ncc2c1 | 4960
CC(O)C1CCN(c2ncc(Br)c(OC3CN(c4ccc5ccccc5n4)C3)n2)CC1 (configuration not stated) | 242

Compound | IC50 [nM]
Cc1cnccc1-c1nccnc1OC1CN(c2ccc3ccccc3n2)C1 | 298
c1cnc(O[C@H]2CCN(c3nc4ccccc4[nH]3)C2)c(C2CCOCC2)c1 | 2470
O=C(c1nc2ccccc2[nH]1)N1CC(Oc2nccnc2N2CCOCC2)C1 | 377
COc1ccc(-c2nccnc2OC2CN(c3ccc4ccccc4n3)C2)cn1 | 25.4
O=C(c1nccc2ccccc12)N1CCC(Oc2nccnc2C2CCOCC2)CC1 | 7320
CC(=O)c1ccc(N2CCC(Oc3ncccc3C3CCOCC3)CC2)nc1 | 384
Cc1cccc2ccc(N3CCC(Oc4nccnc4C4CCOCC4)CC3)nc12 | 7840
Brc1cccnc1OC1CN(c2ccncn2)C1 | 57700
Cc1cccnc1N1CCC(Oc2ncccc2C2CCOCC2)CC1 | 568
c1ccc2[nH]c(N3CCC(Oc4nccnc4C4CCOCC4)CC3)nc2c1 | 229
O=C(c1nc2ccccc2[nH]1)N1CC[C@H](Oc2ncccc2C2=CCOCC2)C1 | 715
CC(=O)N1CCC(c2cnc(N3CCC(CO)CC3)nc2OC2CN(c3ccc4ccccc4n3)C2)CC1 | 0.39
c1ccc2nc(N3CCC(Oc4nccnc4N4CCCCC4)CC3)ccc2c1 | 403
O=C(c1ccc2ccccc2n1)N1CCC(Oc2nccnc2N2CCOCC2)CC1 | 1080
c1ccc2nc(N3CC(Oc4nccnc4N4CCCC4)C3)ccc2c1 | 10000
CC(=O)N1CCCC(c2cccnc2OC2CN(C(=O)c3cc(C)c[nH]3)C2)C1 (configuration not stated) | 7940
c1ccc2nc(N3CC[C@H](Oc4nccnc4C4CCOCC4)C3)ccc2c1 | 447
CC(=O)N1CCC(c2cccnc2OC2CCN(c3cc(C)ccn3)CC2)CC1 | 1770
Cc1ccc2ccc(N3CCC(Oc4ncccc4C4CCOCC4)CC3)nc2c1 | 266
c1ccc2nc(N3CCC(Oc4nccnc4N4CCOCC4)CC3)ccc2c1 | 254
CC(=O)N1CCC(c2cccnc2OC2CCN(c3ccccn3)CC2)CC1 | 1080

Compound | IC50 [nM]
O=C(c1ccncn1)N1CC(Oc2ncccc2C2=CCOCC2)C1 | 990
COCC#Cc1nccnc1OC1CN(c2ccc3ccccc3n2)C1 | 282
Cc1cccc(N2CCC(Oc3nccnc3C3CCOCC3)CC2)n1 | 1440
Cc1ccc2ccc(N3CCC(Oc4nccnc4C4CCOCC4)CC3)nc2c1 | 515
c1ccc2nc(N3CCC(Oc4nccnc4-c4ccncc4)CC3)ccc2c1 | 35.7
OCC1CCCCN1c1ncc(Br)c(OC2CN(c3ccc4ccccc4n3)C2)n1 (configuration not stated) | 260
CC(=O)N1CCCC(c2cccnc2OC2CN(C(=O)c3ccc(C)nc3)C2)C1 (configuration not stated) | 8340
N#Cc1ccc(N2CCC(Oc3ncccc3C3CCOCC3)CC2)nc1 | 828
CC1CCN(c2ncc(Br)c(OC3CN(c4ccc5ccccc5n4)C3)n2)CC1 | 358
c1ccc2nc(N3CC(Oc4nccnc4N4CCC(N5CCCC5)CC4)C3)ccc2c1 | 571
c1ccc2[nH]c(N3CC[C@@H](Oc4nccnc4C4CCOCC4)C3)nc2c1 | 306
Cc1cc(-c2nccnc2OC2CCN(C(=O)c3ccc4ccccc4n3)CC2)ccn1 | 2660
c1ccc2nc(N3CCC(Oc4nccnc4N4CC5(COC5)C4)CC3)ccc2c1 | 345
O=C(c1nc2ccccc2[nH]1)N1CC[C@@H](Oc2ncccc2C2=CCOCC2)C1 | 767
CC(=O)N1CC=C(c2nccnc2OC2CN(C(=O)c3ccc[nH]3)C2)CC1 | 210
O=C(c1nc2ccccc2[nH]1)N1CC(Oc2cnccn2)C1 | 12300
CC(=O)N1CCC(c2nccnc2OC2CCN(c3ncccc3C)CC2)CC1 | 3010
Cc1cc(N2CCC(Oc3ncccc3C3CCOCC3)CC2)nc2ccccc12 | 101
O=Cc1ccc(N2CCC(Oc3ncccc3C3CCOCC3)CC2)nc1 | 1480
CC(=O)N1CC=C(c2nccnc2OC2CN(c3nc4ccccc4s3)C2)CC1 | 63.1
COC(=O)c1ccc(N2CCC(Oc3ncccc3C3CCOCC3)CC2)nc1 | 198

Results, then the compound that gave them:

IC50 [nM] | Compound
68.9 | N#CC1CCN(c2cccnc2OC2CN(c3ccc4ccccc4n3)C2)CC1
53.5 | Cc1cccc(-c2nc3ccccc3nc2OC2CN(c3ccc4ccccc4n3)C2)c1
85.8 | CC(C)(O)C1CCN(c2nccnc2OC2CCN(c3ccc4ccccc4n3)CC2)CC1
45.7 | Fc1ccc(-c2nccnc2OC2CN(c3ccc4ccccc4n3)C2)cn1
26.1 | OC1CCN(c2nccnc2OC2CN(c3ccc4ccccc4n3)C2)CC1
128 | Cc1ccccc1-c1nccnc1OC1CN(c2ccc3ccccc3n2)C1
20.6 | OCC1CCN(c2ncc(Br)c(OC3CN(c4ccc5ccccc5n4)C3)n2)C1 (configuration not stated)
64.8 | CC(=O)N1CCC(c2cc(F)cnc2OC2CN(c3ccc4ccccc4n3)C2)CC1
9.75 | OCC1CCN(c2nc3ccccc3nc2OC2CN(c3ccc4ccccc4n3)C2)CC1
35.9 | FC1(F)CCN(c2cccnc2OC2CN(c3ccc4ccccc4n3)C2)CC1
76.7 | CC(O)C1CCN(c2ccnnc2OC2CN(c3ccc4ccccc4n3)C2)CC1 (configuration not stated)
24.5 | c1ccc2nc(N3CC(Oc4nccnc4-c4ccncc4)C3)ccc2c1
87 | c1ccc2nc(N3CC(Oc4nccnc4-c4cccc5ncccc45)C3)ccc2c1
37.8 | OCC1CCN(c2nccnc2OC2CN(c3cnc4ccccc4n3)C2)CC1
43.6 | c1ccc2nc(N3CC(Oc4nccnc4N4CCC5(CC4)COC5)C3)ccc2c1
83.6 | CC(C)(O)C1CCN(c2nccnc2OC2CN(c3ccc4ccccc4n3)C2)CC1
62.8 | CC1CN(c2nccnc2OC2CN(c3ccc4ccccc4n3)C2)CCO1 (configuration not stated)

IC50 [nM] | Compound
110 | O=C1CCN(c2nccnc2OC2CN(c3ccc4ccccc4n3)C2)CC1
21.1 | O=C(c1nc2ccccc2[nH]1)N1CC(Oc2ncccc2[C@H]2CC[C@@H](O)CC2)C1
125 | Cc1cc(N2CCC(Oc3nccnc3C3CCOCC3)CC2)nc2ccccc12
150 | OC[C@H]1CCCN1c1nccnc1OC1CN(c2ccc3ccccc3n2)C1
29.5 | OC1CCCN(c2nccnc2OC2CN(c3ccc4ccccc4n3)C2)CC1 (configuration not stated)
115 | CC(C)(C)OC(=O)N1CCC(c2nc3ccccc3nc2OC2CN(c3ccc4ccccc4n3)C2)CC1
83.9 | Clc1cnccc1-c1nccnc1OC1CCN(c2ccc3ccccc3n2)CC1
14.9 | C1=C(c2nccnc2OC2CN(c3ccc4ccccc4n3)C2)CCOC1
19 | COc1cccc(-c2nccnc2OC2CN(c3ccc4ccccc4n3)C2)c1
4.23 | FC1(F)CCN(c2nccnc2OC2CN(c3ccc4ccccc4n3)C2)CC1
95.3 | FC1(F)CCN(c2nccnc2OC2CN(c3ccc4ccccc4n3)C2)C1
86.1 | c1ccc2nc(N3CC(Oc4nccnc4N4CCC4)C3)ccc2c1
73.7 | OC1CCN(c2ncc(Br)c(OC3CN(c4ccc5ccccc5n4)C3)n2)CC1
7 | OCC1CCN(c2ncc(Br)c(OC3CN(c4ccc5ccccc5n4)C3)n2)CC1
20 | OCC1CCN(c2ncc(F)c(OC3CN(c4ccc5ccccc5n4)C3)n2)CC1
14.6 | OCC1CCN(c2ncc(Br)c(OC3CN(c4ncc5ccccc5n4)C3)n2)CC1
46.9 | CC(O)C1CCN(c2nccnc2OC2CN(c3ccc4ccccc4n3)C2)CC1 (configuration not stated)
